Laboratory results taken from patent publication US20230407243A1, “GENETIC PLATFORM TO INVESTIGATE THE FUNCTIONS OF BACTERIAL DRUG EFFLUX PUMPS” (priority 2022, published 2023).
Read-outs that look alike come from different tables or passages of the source.

Assays:
Assay type in all cases: cell-based, Escherichia coli
E. coli ΔtolC = assay: microbe, parasite or virus in culture; settings: for Minimum inhibitory concentration (MIC), ΔtolC: Table 10, without pore
How it was run: (§1)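 Steps: LB overnight culture at 37 °C; resuspension in PBS to OD600 ~1.0; 1/2000 dilution in MHB II; addition to 2-fold serial compound dilutions (duplicate); 18 h shaking incubation at 37 °C; OD600 read, with pre-read subtracted.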

[1] = tested on: wild-type E. coli K-12 str. BW25113; assay: microbe, parasite or virus in culture; settings: technical duplicate; for MIC: Escherichia coli, BW25113
How it was run: as §1

E. coli EKO-35 = assay: microbe, parasite or virus in culture; settings: for Fold change of MICs: EKO-35 compared to EKO-35 (reference); for MIC: Escherichia coli, EKO35
How it was run: as §1

EKO-35 araC::mdtBC = assay: MIC susceptibility profiling, efflux platform; settings: for Fold change of MICs: EKO-35 araC::mdtBC compared to EKO-35
How it was run: as §1

EKO-35 araC::acrEF = assay: MIC susceptibility profiling, efflux platform; settings: for Fold change of MICs: EKO-35 araC::acrEF compared to EKO-35
How it was run: as §1

EKO-35 araC::acrBD408A = assay: MIC susceptibility profiling, efflux platform; settings: for Fold change of MICs: EKO-35 araC::acrBD408A compared to EKO-35
How it was run: as §1

EKO-35-Pore = assay: MIC susceptibility profiling, porinated strain; settings: for Fold changes of MICs: EKO-35-Pore compared to EKO-35-Pore (reference); for MIC: Escherichia coli
How it was run: (§2)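 Strains carry the fhuA ΔC/Δ4L pore integrated between glmS and pstS under a constitutive promoter, with pore activity checked by vancomycin susceptibility. Overnight LB cultures were adjusted in PBS pH 7.4 to OD600 ~1.0 and diluted 1/2000 into MHB II. 2-fold compound titrations were read by OD600 after 18 h at 37 °C.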

wild-type (WT) K-12-Pore = assay: microbe, parasite or virus in culture; settings: technical duplicate
How it was run: as §2

ΔtolC-Pore = assay: microbe, parasite or virus in culture; settings: for Minimum inhibitory concentration (MIC), Pore ΔtolC: Table 10, with pore
How it was run: as §2

EKO-35 araC::mdtEF Pore = assay: MIC susceptibility profiling, porinated efflux platform
How it was run: as §2

EKO-35 araC::emrAB Pore = assay: as above; settings: for Fold changes of MICs: EKO-35 araC::emrAB Pore compared to EKO-35-Pore
How it was run: as §2

EKO-35 araC::acrB Pore = assay: as above; settings: for Fold changes of MICs: EKO-35 araC::acr-B Pore compared to EKO-35-Pore
How it was run: as §2

EKO-35 araC::macAB Pore = assay: as above; settings: for Fold changes of MICs: EKO-35 araC::macAB Pore compared to EKO-35-Pore
How it was run: as §2

EKO-35 araC::mdtBC Pore = assay: as above
How it was run: as §2

[2] = tested on: EKO-35 araC::acrBD408A Pore; assay: as above; settings: for Fold changes of MICs: EKO-35 araC::acrBD408A Pore compared to EKO-35-Pore
How it was run: as §2

EKO-35 araC::emrKY Pore = assay: as above; settings: for Fold changes of MICs: EKO-35 araC::emrKY Pore compared to EKO-35-Pore
How it was run: as §2

EKO-35 araC::mexCD Pore = assay: as above; settings: for Fold changes of MICs: EKO-35 araC::mexCD Pore compared to EKO-35-Pore
How it was run: as §2

EKO-35 araC::acrD Pore = assay: as above; settings: for Fold changes of MICs: EKO-35 araC::acrD Pore compared to EKO-35-Pore
How it was run: as §2

EKO-35 araC::acrEF Pore = assay: as above; settings: for Fold changes of MICs: EKO-35 araC::acrEF Pore compared to EKO-35-Pore
How it was run: as §2

[3] = Table 13A, non-porinated, technical duplicate
[4] = Table 13B, non-porinated, technical duplicate
[5] = Table 14A, porinated, technical duplicate

Q: What does the source list for `O=c1oc(-c2ccccc2Cl)nn1-c1ccc(C(F)(F)F)cn1` [compound 5]?
A: Minimum inhibitory concentration (MIC), ΔtolC (E. coli ΔtolC; technical duplicate): 10 µg/mL; Minimum Inhibitory Concentration, ΔtolC (E. coli ΔtolC; [3]): 10 µg/mL; Minimum inhibitory concentration (MIC), K-12 ([1]; Table 10, without pore): 320 µg/mL; Minimum Inhibitory Concentration, K-12 ([1]; Table 13A, non-porinated): 320 µg/mL; Fold change of MICs (E. coli EKO-35): 1 fold; Minimum inhibitory concentration (MIC), EKO-35 (E. coli EKO-35; Table 10, without pore, technical duplicate): 20 µg/mL; Minimum Inhibitory Concentration, EKO-35 (E. coli EKO-35; [3]): 20 µg/mL; susceptibility of EKO-35 to the compound (E. coli EKO-35; synthetic efflux substrates of FIG. 12): susceptible; Fold change of MICs (EKO-35 araC::mdtBC): 1 fold; Minimum Inhibitory Concentration, EKO-35 araC::mdtBC (EKO-35 araC::mdtBC; [4]): 10 µg/mL; Fold change of MICs (EKO-35 araC::acrEF): 16 fold; Minimum Inhibitory Concentration, EKO-35 araC::acrEF (EKO-35 araC::acrEF; [3]): 320 µg/mL; Fold change of MICs (EKO-35 araC::acrBD408A): 1 fold; Minimum Inhibitory Concentration, EKO-35 araC::acrBD408A (EKO-35 araC::acrBD408A; [4]): 20 µg/mL; Fold changes of MICs (EKO-35-Pore): 1 fold; Minimum inhibitory concentration (MIC), Pore EKO-35 (EKO-35-Pore; Table 10, with pore, technical duplicate): 20 µg/mL; Minimum inhibitory concentration, EKO-35-Pore (EKO-35-Pore; [5]): 20 µg/mL; Minimum inhibitory concentration (MIC), Pore K-12 (wild-type (WT) K-12-Pore; Table 10, with pore): 320 µg/mL; Minimum inhibitory concentration, K-12 (WT)-Pore (wild-type (WT) K-12-Pore; Table 14A, porinated): 320 µg/mL; Minimum inhibitory concentration (MIC), Pore ΔtolC (ΔtolC-Pore; technical duplicate): 2.5 µg/mL; Minimum inhibitory concentration, ΔtolC-Pore (ΔtolC-Pore; [5]): 2.5 µg/mL; Minimum inhibitory concentration, EKO-35 araC::mdtEF Pore (EKO-35 araC::mdtEF Pore; [5]): 320 µg/mL; Fold changes of MICs (EKO-35 araC::emrAB Pore): 16 fold; Minimum inhibitory concentration (EKO-35 araC::emrAB Pore; EKO-35 araC::emrAB Pore, technical duplicate): 320 µg/mL; Fold changes of MICs (EKO-35 araC::acrB Pore): 16 fold; Minimum inhibitory concentration, EKO-35 araC::acrB Pore (EKO-35 araC::acrB Pore; [5]): 320 µg/mL; Fold changes of MICs (EKO-35 araC::macAB Pore): 1 fold; Minimum inhibitory concentration (EKO-35 araC::macAB Pore; EKO-35 araC::macAB Pore, technical duplicate): 10 µg/mL; Minimum inhibitory concentration (EKO-35 araC::mdtBC Pore; EKO-35 araC::mdtBC Pore, technical duplicate): 10 µg/mL; Fold changes of MICs [2]: 1 fold; Minimum inhibitory concentration ([2]; EKO-35 araC::acrBD408A Pore, technical duplicate): 20 µg/mL; Fold changes of MICs (EKO-35 araC::emrKY Pore): 1 fold; Minimum inhibitory concentration (EKO-35 araC::emrKY Pore; EKO-35 araC::emrKY Pore, technical duplicate): 10 µg/mL; Fold changes of MICs (EKO-35 araC::mexCD Pore): 16 fold; Minimum inhibitory concentration (EKO-35 araC::mexCD Pore; EKO-35 araC::mexCD Pore, technical duplicate): 320 µg/mL; Fold changes of MICs (EKO-35 araC::acrD Pore): 1 fold; Minimum inhibitory concentration, EKO-35 araC::acrD Pore (EKO-35 araC::acrD Pore; [5]): 10 µg/mL; Fold changes of MICs (EKO-35 araC::acrEF Pore): 16 fold; Minimum inhibitory concentration, EKO-35 araC::acrEF Pore (EKO-35 araC::acrEF Pore; [5]): 320 µg/mL

Q: With `CC1(C)S[C@@H]2[C@H](NC(=O)[C@H](N)c3ccccc3)C(=O)N2[C@H]1C(=O)O` [ampicillin] as the compound, how does the MIC (E. coli ΔtolC; Escherichia coli, 18 h, read-out: Minimum Inhibitory Concentration, ΔtolC) read?
A: 25 µg/mL

Q: What about the “Minimum inhibitory concentration (MIC), ΔtolC” value (E. coli ΔtolC; technical duplicate) of the same compound?
A: 25 µg/mL

Q: What about the MIC ([1]; Table 10, without pore, read-out: Minimum inhibitory concentration (MIC), K-12) of the same compound?
A: 100 µg/mL

Q: And the MIC ([1]; Table 13A, non-porinated, read-out: Minimum Inhibitory Concentration, K-12)?
A: 100 µg/mL

Q: What about the “Fold change of MICs” value (E. coli EKO-35) of the same compound?
A: 1 fold

Q: And the MIC (E. coli EKO-35; Table 10, without pore, technical duplicate, read-out: Minimum inhibitory concentration (MIC), EKO-35)?
A: 25 µg/mL

Q: What about the MIC (E. coli EKO-35; Table 13A, non-porinated, technical duplicate, read-out: Minimum Inhibitory Concentration, EKO-35) of the same compound?
A: 25 µg/mL

Q: What about the “Fold change of MICs” value (EKO-35 araC::mdtBC) of the same compound?
A: 1 fold

Q: What about the MIC (EKO-35 araC::mdtBC; Escherichia coli, Table 13B, non-porinated, technical duplicate, read-out: Minimum Inhibitory Concentration, EKO-35 araC::mdtBC) of the same compound?
A: 25 µg/mL

Q: What about the “Fold change of MICs” value (EKO-35 araC::acrEF) of the same compound?
A: 2 fold

Q: And the MIC (EKO-35 araC::acrEF; Escherichia coli, Table 13A, non-porinated, technical duplicate, read-out: Minimum Inhibitory Concentration, EKO-35 araC::acrEF)?
A: 50 µg/mL

Q: And the “Fold change of MICs” value (EKO-35 araC::acrBD408A)?
A: 1 fold

Q: What about the MIC (EKO-35 araC::acrBD408A; Escherichia coli, Table 13B, non-porinated, technical duplicate, read-out: Minimum Inhibitory Concentration, EKO-35 araC::acrBD408A) of the same compound?
A: 25 µg/mL

Q: And the “Fold changes of MICs” value (EKO-35-Pore)?
A: 1 fold

Q: And the MIC (EKO-35-Pore; Table 10, with pore, technical duplicate, read-out: Minimum inhibitory concentration (MIC), Pore EKO-35)?
A: 1.56 µg/mL

Q: What about the MIC (EKO-35-Pore; Table 14A, porinated, technical duplicate, read-out: Minimum inhibitory concentration, EKO-35-Pore) of the same compound?
A: 1.56 µg/mL

Q: And the MIC (wild-type (WT) K-12-Pore; Escherichia coli, Table 10, with pore, read-out: Minimum inhibitory concentration (MIC), Pore K-12)?
A: 12.5 µg/mL

Q: And the MIC (ΔtolC-Pore; Escherichia coli, 18 h, read-out: Minimum inhibitory concentration, ΔtolC-Pore)?
A: 1.56 µg/mL

Q: And the “Minimum inhibitory concentration (MIC), Pore ΔtolC” value (ΔtolC-Pore; technical duplicate)?
A: 1.563 µg/mL

Q: And the “Fold changes of MICs” value (EKO-35 araC::mdtEF Pore; EKO-35 araC::mdtEF Pore compared to EKO-35-Pore)?
A: 1 fold

Q: What about the MIC (EKO-35 araC::mdtEF Pore; Escherichia coli, Table 14A, porinated, technical duplicate, read-out: Minimum inhibitory concentration, EKO-35 araC::mdtEF Pore) of the same compound?
A: 1.56 µg/mL

Q: What about the “Fold changes of MICs” value (EKO-35 araC::emrAB Pore) of the same compound?
A: 1 fold

Q: What about the MIC (EKO-35 araC::emrAB Pore; Escherichia coli, EKO-35 araC::emrAB Pore, technical duplicate, read-out: Minimum inhibitory concentration) of the same compound?
A: 0.781 µg/mL

Q: And the “Fold changes of MICs” value (EKO-35 araC::acrB Pore)?
A: 8 fold

Q: And the “Fold changes of MICs” value (EKO-35 araC::macAB Pore)?
A: 1 fold

Q: And the MIC (EKO-35 araC::macAB Pore; Escherichia coli, EKO-35 araC::macAB Pore, technical duplicate, read-out: Minimum inhibitory concentration)?
A: 1.56 µg/mL

Q: What about the “Fold changes of MICs” value (EKO-35 araC::mdtBC Pore; EKO-35 araC::mdtBC Pore compared to EKO-35-Pore) of the same compound?
A: 1 fold

Q: And the MIC (EKO-35 araC::mdtBC Pore; Escherichia coli, EKO-35 araC::mdtBC Pore, technical duplicate, read-out: Minimum inhibitory concentration)?
A: 0.781 µg/mL

Q: And the “Fold changes of MICs” value [2]?
A: 1 fold

Q: And the MIC ([2]; Escherichia coli, EKO-35 araC::acrBD408A Pore, technical duplicate, read-out: Minimum inhibitory concentration)?
A: 0.781 µg/mL

Q: And the “Fold changes of MICs” value (EKO-35 araC::emrKY Pore)?
A: 2 fold

Q: And the MIC (EKO-35 araC::emrKY Pore; Escherichia coli, EKO-35 araC::emrKY Pore, technical duplicate, read-out: Minimum inhibitory concentration)?
A: 3.12 µg/mL

Q: What about the “Fold changes of MICs” value (EKO-35 araC::mexCD Pore) of the same compound?
A: 1 fold

Q: And the MIC (EKO-35 araC::mexCD Pore; Escherichia coli, EKO-35 araC::mexCD Pore, technical duplicate, read-out: Minimum inhibitory concentration)?
A: 1.56 µg/mL

Q: And the “Fold changes of MICs” value (EKO-35 araC::acrD Pore)?
A: 16 fold

Q: What about the MIC (EKO-35 araC::acrD Pore; Escherichia coli, Table 14A, porinated, technical duplicate, read-out: Minimum inhibitory concentration, EKO-35 araC::acrD Pore) of the same compound?
A: 25 µg/mL

Q: And the “Fold changes of MICs” value (EKO-35 araC::acrEF Pore)?
A: 2 fold

Q: What about the MIC (EKO-35 araC::acrEF Pore; Escherichia coli, Table 14A, porinated, technical duplicate, read-out: Minimum inhibitory concentration, EKO-35 araC::acrEF Pore) of the same compound?
A: 3.12 µg/mL
